Five compounds from patent US20230123334A1, “AMINO LIPID COMPOUND, PREPARATION METHOD THEREFOR, AND APPLICATION THEREOF” (SHENZHEN SHENXIN BIOTECHNOLOGY CO., LTD., priority 2020, published 2023) can be followed below.

Molecules are shown by their SMILES.

The first assay deals with cardiomyocytes. Nature of the assay: Screening as DNA vectors in cardiomyocytes. The class given is cell-based. Set-up: concentration or dose not given beside the values. As to conditions: method as Example 4. The protocol:
Cell line: cardiomyocytes (obtained from induced differentiation of hESC according to reported methods: J. Mol. Cell. Cardiol. 2011, 51, 288-298)
(§1) Medium: DMEM supplemented with 10% fetal bovine serum (Invitrogen)
(§2) Mode of screening: cell transfection on 96-well plates
(§3) Detection (readout): percentage of the number of GFP fluorescent cells relative to the total number of cells (the total number of cells was determined using nucleus dye Hoechst). Lipofectamine Stem (Invitrogen) was used as the positive control, according to the manufacturer's instructions.
(§4) Method: the experimental method was basically the same with Example 4.
Consider `CCCCCCCCCCCNc1nc(NCCN2CCCC2)nc(SCCCCCCCC)n1` [Compound S8N11D3], for which the “Absolute DNA transfection efficiency in cardiomyocytes” value is reported as 0.5%.
Same read-out and setting: the result for `CCCCCCCCCCCNc1nc(NCCN2CCN(C)CC2)nc(SCCCCCCCC)n1` [Compound S8N11D5] reads 3.0%.
Turning to `CCCCCCCCCCCNc1nc(NCCCN(C)C)nc(SCCCCCCCC)n1` [Compound S8N11D6], the “Absolute DNA transfection efficiency in cardiomyocytes” value is 1.4%.
On the same count and under the same terms, the result for `CCCCCCCCCCCNc1nc(NCCCN2CCOCC2)nc(SCCCCCCCC)n1` [Compound S8N11D8] reads 2.1%.
The same measure, in the same setting: as for `CCCCCCCCCCCNc1nc(NCCCN2CCN(C)CC2)nc(SCCCCCCCC)n1` [Compound S8N11D9], the figure is 0.6%.

Another assay relates to MCF7 cells. Nature of the assay: Transfection of MCF7 cell line, DNA vectors. The class given is cell-based. As to conditions: plasmid DNA, GFP cells / total cells. Further details: concentration or dose not given beside the values. The protocol:
(§5) Cell line: MCF7 cells (ATCC HTB-22)
Medium DMEM supplemented with […] fetal bovine serum
(§6) Screening: cell transfection on 96-well plates
Detection (readout): percentage of the number of GFP fluorescent cells relative to the total number of cells (the total number of cells was determined using nucleus dye Hoechst). Lipofectamine2000 was used as the positive control, according to the manufacturer's instructions.
as §4
On to `CCCCCCCCCCCNc1nc(NCCN2CCCC2)nc(SCCCCCCCC)n1` [Compound S8N11D3], for which the “Absolute DNA transfection efficiency in MCF7 cells” value stood at 3.6%.
The same measure, in the same setting: the result for `CCCCCCCCCCCNc1nc(NCCN2CCN(C)CC2)nc(SCCCCCCCC)n1` [Compound S8N11D5] reads 16.7%; that for `CCCCCCCCCCCNc1nc(NCCCN(C)C)nc(SCCCCCCCC)n1` [Compound S8N11D6], 18.0%; that for `CCCCCCCCCCCNc1nc(NCCCN2CCOCC2)nc(SCCCCCCCC)n1` [Compound S8N11D8], 4.4%.
The same measure, in the same setting: the result for `CCCCCCCCCCCNc1nc(NCCCN2CCN(C)CC2)nc(SCCCCCCCC)n1` [Compound S8N11D9] reads 45.4%.

The next assay deals with Hela cells. The assay is described as follows: Transfection of Hela cell line, DNA vectors. It is filed as cell-based. As to conditions: 75 ng plasmid DNA, GFP cells / total cells. In a few lines: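 Amino lipid/DOPE liposomes in sodium acetate pH 5.6 were complexed with 75 ng psin-EGFP-IRES-Puro plasmid for 30 min at room temperature, then mixed with 3-5×10^4 Hela cells in DMEM/10% FBS at 37° C. Hoechst stain after 20-24 h, imaging after a further 20-24 h. Efficiency = GFP-positive cells / total nuclei.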
In the case of `CCCCCCCCCCCNc1nc(NCCN2CCCC2)nc(SCCCCCCCC)n1` [Compound S8N11D3], the “Absolute DNA transfection efficiency in Hela cells” value is 26.2%.
The same measure, in the same setting: the result for `CCCCCCCCCCCNc1nc(NCCN2CCN(C)CC2)nc(SCCCCCCCC)n1` [Compound S8N11D5] reads 26.5%.
In the case of `CCCCCCCCCCCNc1nc(NCCCN(C)C)nc(SCCCCCCCC)n1` [Compound S8N11D6], the “Absolute DNA transfection efficiency in Hela cells” value worked out at 50.1%.
On the same count and under the same terms, the result for `CCCCCCCCCCCNc1nc(NCCCN2CCOCC2)nc(SCCCCCCCC)n1` [Compound S8N11D8] reads 6.8%; that for `CCCCCCCCCCCNc1nc(NCCCN2CCN(C)CC2)nc(SCCCCCCCC)n1` [Compound S8N11D9], 31.9%.

A further assay relates to MCF7 cells. The assay is described as follows: Transfection of MCF7 cell line, mRNA vectors. The class given is cell-based. As to conditions: 50 ng EGFP mRNA per well. The protocol:
as §5
Medium: DMEM supplemented with 10 fetal bovine serum (Invitrogen)
as §6
Detection (readout): percentage of the number of GFP fluorescent cells relative to the total number of cells (the total number of cells was determined using nucleus dye Hoechst). Lipofectamine2000 (Invitrogen) was used as the positive control.
Method: the experimental method was basically the same with Example 4, and the mass of EGFP mRNA (TriLink) for transfection was 50 ng per well.
With `CCCCCCCCCCCNc1nc(NCCN2CCCC2)nc(SCCCCCCCC)n1` [Compound S8N11D3], the “Absolute mRNA transfection efficiency in MCF7 cells” value was 8.0%.
On the same count and under the same terms, as for `CCCCCCCCCCCNc1nc(NCCN2CCN(C)CC2)nc(SCCCCCCCC)n1` [Compound S8N11D5], the figure is 9.1%.
With `CCCCCCCCCCCNc1nc(NCCCN(C)C)nc(SCCCCCCCC)n1` [Compound S8N11D6], the “Absolute mRNA transfection efficiency in MCF7 cells” value was 6.7%.
Regarding `CCCCCCCCCCCNc1nc(NCCCN2CCOCC2)nc(SCCCCCCCC)n1` [Compound S8N11D8], the “Absolute mRNA transfection efficiency in MCF7 cells” value is 0.1%.
Still for that read-out and setting: as for `CCCCCCCCCCCNc1nc(NCCCN2CCN(C)CC2)nc(SCCCCCCCC)n1` [Compound S8N11D9], the figure is 6.6%.

The test system of a further assay is cardiomyocytes. Nature of the assay: Screening as mRNA vectors in cardiomyocytes. As to conditions: 50 ng EGFP mRNA per well. It is filed as cell-based. The protocol: Cell line: cardiomyocytes (obtained from induced differentiation of hESC according to reported methods: J Mol. Cell. Cardiol. 2011, 51, 288-298)
as §1, §2, §3
Method: the experimental method was basically the same with Example 4, and the mass of EGFP mRNA for transfection was 50 ng per well.
As for `CCCCCCCCCCCNc1nc(NCCN2CCCC2)nc(SCCCCCCCC)n1` [Compound S8N11D3], the “Absolute mRNA transfection efficiency in cardiomyocytes” value turned out to be 6.2%.
The same measure, in the same setting: as for `CCCCCCCCCCCNc1nc(NCCN2CCN(C)CC2)nc(SCCCCCCCC)n1` [Compound S8N11D5], the figure is 3.7%; as for `CCCCCCCCCCCNc1nc(NCCCN(C)C)nc(SCCCCCCCC)n1` [Compound S8N11D6], 5.3%.
Same read-out and setting: the result for `CCCCCCCCCCCNc1nc(NCCCN2CCOCC2)nc(SCCCCCCCC)n1` [Compound S8N11D8] reads 1.9%; that for `CCCCCCCCCCCNc1nc(NCCCN2CCN(C)CC2)nc(SCCCCCCCC)n1` [Compound S8N11D9], 31.6%.

In another assay the test system is Hela cells. The assay is described as follows: Transfection of Hela cell line, mRNA vectors. It is filed as cell-based. As to conditions: 50 ng EGFP mRNA per well. In a few lines: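 Transfection efficiency was scored as GFP-fluorescent cells over Hoechst-stained total nuclei, with Lipofectamine2000 as reference reagent. Each well of HeLa cells, grown in DMEM plus 10% FBS, received 50 ng EGFP mRNA.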
Consider `CCCCCCCCCCCNc1nc(NCCN2CCCC2)nc(SCCCCCCCC)n1` [Compound S8N11D3], for which the “Absolute mRNA transfection efficiency in Hela cells” value turned out to be 26.2%.
Same read-out and setting: the result for `CCCCCCCCCCCNc1nc(NCCN2CCN(C)CC2)nc(SCCCCCCCC)n1` [Compound S8N11D5] reads 26.5%.
The same measure, in the same setting: as for `CCCCCCCCCCCNc1nc(NCCCN(C)C)nc(SCCCCCCCC)n1` [Compound S8N11D6], the figure is 50.2%; as for `CCCCCCCCCCCNc1nc(NCCCN2CCOCC2)nc(SCCCCCCCC)n1` [Compound S8N11D8], 6.8%.
Same read-out and setting: the result for `CCCCCCCCCCCNc1nc(NCCCN2CCN(C)CC2)nc(SCCCCCCCC)n1` [Compound S8N11D9] reads 31.9%.

The test system of a further assay is embryonic stem cells (hESC2). Nature of the assay: Screening as mRNA vectors in embryonic stem cells. The class given is cell-based. As to conditions: 50 ng EGFP mRNA per well. The protocol: (§7) Cell line: embryonic stem cells (hESC2, cultured according to reported methods: Stem Cells, 2005, 23, 544-549)
(§8) Medium: mTeSR1 (STEMCELL)
Mode of screening: cell transfection on 96-well plate
(§9) Detection (readout): percentage of the number of GFP fluorescent cells relative to the total number of cells. Lipofectamine Stem was used as the positive control.
Method: the experimental method was basically the same with Example 10, and the mass of EGFP mRNA for transfection was 50 ng per well.
Regarding `CCCCCCCCCCCNc1nc(NCCN2CCCC2)nc(SCCCCCCCC)n1` [Compound S8N11D3], the “Absolute mRNA transfection efficiency in embryonic stem cells” value was found to be 2.4%.
Same read-out and setting: as for `CCCCCCCCCCCNc1nc(NCCN2CCN(C)CC2)nc(SCCCCCCCC)n1` [Compound S8N11D5], the figure is 1.6%.
Same read-out and setting: as for `CCCCCCCCCCCNc1nc(NCCCN(C)C)nc(SCCCCCCCC)n1` [Compound S8N11D6], the figure is 1.9%.
The same measure, in the same setting: as for `CCCCCCCCCCCNc1nc(NCCCN2CCOCC2)nc(SCCCCCCCC)n1` [Compound S8N11D8], the figure is 1.0%; as for `CCCCCCCCCCCNc1nc(NCCCN2CCN(C)CC2)nc(SCCCCCCCC)n1` [Compound S8N11D9], 1.0%.

Another assay relates to embryonic stem cells (hESC2). Nature of the assay: Screening as DNA vectors in embryonic stem cells, flow cytometry. The class given is cell-based. As to conditions: 75 ng plasmid DNA, 48 hours after transfection, flow cytometer.
Text: as §7, §8, §2, §9
Method: an 8-channel pipette was used for sample addition. The contents shown were for a single well of a 96-well flat plate.
1. Stem cells were cultured to 3-5×10^4 cells per well in a 96-well plate treated with matrigel.
2. The compound (0.01 mmol) prepared in Example 1 was dissolved in 1 mL of anhydrous ethanol. After ultrasonically dissolved, 10 μL of the resultant amino lipid solution in ethanol was taken and mixed with 5 μL of DOPE solution in ethanol ([…]). The obtained mixture was then added with 35 μL of 0.2 M sodium acetate buffer (pH 5.6), and vortexed at a constant rotating speed for 30 s. Then, 4 μL was taken from the obtained product and added to 46 μL of 0.02 M sodium acetate buffer (pH 5.6), and vortexed at a constant rotating speed for 30 s to form a liposome solution. 5 μL of this liposome solution was mixed with 75 ng of plasmid DNA (pSin-EGFP-IRES-Puro) dissolved in 5 μL of 0.02 M sodium acetate buffer, and allowed to stay at room temperature for 30 min to form a lipid/DNA transfection complex.
3. 10 μL of the lipid/DNA transfection complex was incubated at room temperature for 30 min, followed by addition of 90 μL mTeSR1 medium was added and mixing with a pipette. 100 μL of the mixture was added to separate wells of a 96-well culture plate and placed in an incubator containing 5% CO2 at 37° C.
4. 48 hours after transfection, the cells were digested with 0.05% Trypsin-EDTA. The cells were resuspended in a PBS buffer and filtered. The cell suspension was placed in a flow cytometer and the number of GFP-expressing cells in no less than 2000 cells was measured so as to obtain the absolute efficiency of cell transfection. The relative efficiency of cell transfection was obtained by comparing the cell transfection efficiency with the positive control Lipofectamine Stem.
For orientation: Flow cytometry measures light scatter and fluorescence of single cells or particles in a stream.
With `CCCCCCCCCCCNc1nc(NCCN2CCCC2)nc(SCCCCCCCC)n1` [Compound S8N11D3], the “Absolute DNA transfection efficiency in embryonic stem cells” value is 0.2%.
Same read-out and setting: the result for `CCCCCCCCCCCNc1nc(NCCN2CCN(C)CC2)nc(SCCCCCCCC)n1` [Compound S8N11D5] reads 1.1%; that for `CCCCCCCCCCCNc1nc(NCCCN(C)C)nc(SCCCCCCCC)n1` [Compound S8N11D6], 0.2%.
On the same count and under the same terms, as for `CCCCCCCCCCCNc1nc(NCCCN2CCOCC2)nc(SCCCCCCCC)n1` [Compound S8N11D8], the figure is 0.7%; as for `CCCCCCCCCCCNc1nc(NCCCN2CCN(C)CC2)nc(SCCCCCCCC)n1` [Compound S8N11D9], 0.5%.
